Measurements from publication PMC6216040, “Repurposing of an old drug: In vitro and in vivo efficacies of buparvaquone against Echinococcus multilocularis” (International Journal for Parasitology: Drugs and Drug …, 2018).
Converted amounts (≈) assume the structure as drawn. Read-outs that look alike come from different tables or passages of the source.

How the values were obtained:
[1] = test system: E. multilocularis metacestodes; assay: PGI-assay: drug-induced damage on in vitro cultured metacestodes (Pathogen Box screening cascade and EC50); type: cell-based, Echinococcus multilocularis; settings: for activity in the present in vitro screen (threshold 20% relative activity compared to Tx-100) / activity in the screen at 10 μM (confirmed in triplicates, >20% relative PGI release): 10 μM; for activity against metacestodes at 1 μM / PGI release, % of Tx-100 control, average, 5d / PGI release, % of Tx-100 control, average, 12d: triplicates; for PGI release, % of Tx-100 control, average, 5d / PGI release, % of Tx-100 control, average, 12d: 1 µM; for activity in the screen at 10 μM (confirmed in triplicates, >20% relative PGI release): 5 and 12 days; for toxicity against E. multilocularis metacestodes compared with host cells (HFF, RH): comparison of EC50 with IC50 on mammalian cells
E. granulosus = test system: E. granulosus; set-up: method as in Kammerer and Perez-Esandi, 1975; Miyaji et al., 1993; settings: ref Kammerer and Perez-Esandi, 1975; Miyaji et al., 1993; cited from earlier work
[2] = test system: E. multilocularis metacestodes; assay: Vesicle viability assay by Alamar Blue (MIC); type: cell-based, Echinococcus multilocularis
Protocol: The setup was the same as for PGI-assay EC50 calculations and it was performed in triplicates. […] Data was used to calculate the minimal inhibitory concentrations (MICs) of these compounds on metacestodes.

[3] = test system: Reuber rat hepatoma (RH) cells; assay: Cytotoxicity by Alamar Blue assay in rat hepatoma cells; type: cell-based; settings: 120 h
[4] = test system: human foreskin fibroblasts (HFF); assay: Cytotoxicity by Alamar Blue assay in human foreskin fibroblasts; settings: for IC50: Homo sapiens, Fibroblast, 120 h
[5] = test system: human foreskin fibroblasts (HFF); set-up: method as in Stadelmann et al., 2016; settings: ref Stadelmann et al., 2016; cited from earlier work
[6] = Echinococcus multilocularis, 120 h, 10 µM, singlets, 5 days of incubation, read-out: PGI release, % of the Tx-100 control, 5d
[7] = Echinococcus multilocularis, 288 h, 10 µM, singlets, 12 days of incubation, read-out: PGI release, % of the Tx-100 control, 12d
[8] = Echinococcus multilocularis, 120 h, read-out: PGI release, % of Tx-100 control, average, 5d
[9] = Echinococcus multilocularis, 120 h, read-out: PGI release, % of the Tx-100 control, 5d
[10] = Echinococcus multilocularis, 288 h, read-out: PGI release, % of Tx-100 control, average, 12d
[11] = Echinococcus multilocularis, 288 h, read-out: PGI release, % of the Tx-100 control, 12d
[12] = Echinococcus multilocularis, 288 h, read-out: E. multilocularis MIC, Alamar Blue vesicle viability assay, 12 days of incubation
[13] = read-out: HFF preconfluent IC50

| Compound | activity in the present in vitro screen (threshold 20% relative activity compared to Tx-100) [1] | effect in vivo against E. granulosus (E. granulosus) | activity against metacestodes at 1 μM [1] | PGI release, % of Tx-100 control, average, 5d ([1]; 5 days of incubation) | PGI release, % of Tx-100 control, average, 12d ([1]; 12 days of incubation) | activity in the screen at 10 μM (confirmed in triplicates, >20% relative PGI release) [1] | cytotoxicity at 10 µM [1, 8] | cytotoxicity at 10 µM [1, 9] | cytotoxicity at 10 µM [1, 10] | cytotoxicity at 10 µM [1, 11] | toxicity against E. multilocularis metacestodes compared with host cells (HFF, RH) [1] | IC50 ([3]; read-out: RH confluent IC50) | IC50 ([3]; read-out: RH preconfluent IC50) | IC50 ([4]; read-out: HFF confluent IC50) | IC50 [4, 13] | further results |
| --- | --- | --- | --- | --- | --- | --- | --- | --- | --- | --- | --- | --- | --- | --- | --- | --- |
| N=C(N)c1ccc(OCCCCCOc2ccc(C(=N)N)cc2)cc1 [MMV000062, Pentamidine, reference compound] | inactive | did not show any effects |  |  |  |  |  |  |  |  |  |  |  |  |  | cytotoxicity at 10 µM [1, 6]: -1%; cytotoxicity at 10 µM [1, 7]: -1.06% |
| NCCC[C@](N)(C(=O)O)C(F)F [MMV001625, alpha-Difluoromethylornithine, reference compound] | inactive | did not show any effects |  |  |  |  |  |  |  |  |  |  |  |  |  | PGI release, % of the Tx-100 control, 5d ([1]; 10 µM, singlets, 5 days of incubation): -0.43%; PGI release, % of the Tx-100 control, 12d ([1]; 10 µM, singlets, 12 days of incubation): -0.93% |
| c1ccc(-c2nc(NC3CCCCC3)cc(C3CC3)n2)nc1 [MMV021013] |  |  | distinct in vitro activities | 3.92% | 24.95% | active | 37.8% | 34.8% | 42.3% | 92% | as toxic to host cells as it was to E. multilocularis metacestodes | 2070 nM | 1100 nM | 53100 nM | 5140 nM | EC50 ([1]; Echinococcus multilocularis, 120 h, read-out: E. multilocularis EC50, PGI-assay, 5 days in vitro): 15800 nM; MIC [2, 12]: 20 µM (≈ 5.89 µg/mL) |
| Cc1ccc(C(=O)Nc2ccc(S(=O)(=O)O)c3cc(S(=O)(=O)O)cc(S(=O)(=O)O)c23)cc1NC(=O)c1cccc(NC(=O)Nc2cccc(C(=O)Nc3cc(C(=O)Nc4ccc(S(=O)(=O)O)c5cc(S(=O)(=O)O)cc(S(=O)(=O)O)c45)ccc3C)c2)c1 [MMV637953, Suramin, reference compound] | inactive | did not show any effects |  |  |  |  |  |  |  |  |  |  |  |  |  | cytotoxicity at 10 µM [1, 6]: 0.85%; cytotoxicity at 10 µM [1, 7]: 0.51% |
| O=C(Nc1cccc(C(F)(F)F)c1)c1cc(Cl)ccc1O [MMV665807] |  |  |  |  |  |  |  |  |  |  |  |  |  |  |  | toxicity against HFF [5]: did not exhibit any specific toxicity |
| Cc1[nH]c2cc(F)cc(F)c2c(=O)c1-c1ccc(Oc2ccc(OC(F)(F)F)cc2)cc1 [MMV671636, ELQ-400] |  |  | distinct in vitro activities | 56.00% | 70.43% | active | 5.44% | 6.52% | 76.1% | 24% | specific toxicity | 2070 nM | 250 nM | 74800 nM | 12300 nM | IC50 ([1]; Echinococcus multilocularis, read-out: IC50 against in vitro cultured E. multilocularis metacestodes): 20 nM; EC50 ([1]; read-out: E. multilocularis EC50, PGI-assay, 5 days in vitro): 20 nM; EC50 ([1]; read-out: E. multilocularis EC50, PGI-assay, 5 days in vitro, listed as MMV671363): < 1000 nM; E. multilocularis MIC ([2]; Alamar Blue vesicle viability assay, 12 days of incubation, listed as MMV671363): below 1 μM; MIC ([2]; Alamar Blue vesicle viability assay, 12 days of incubation, read-out: E. multilocularis MIC): 0.01 µM (≈ 0.00447 µg/mL) |
| O=C(Nc1cc(C(F)(F)F)cc(C(F)(F)F)c1)c1cc(Cl)ccc1O [MMV687807] |  |  | distinct in vitro activities | 40.83% | 59.00% | active | 58.5% | 30.8% | 74.5% | 64.7% | could only exhibit a potential therapeutic window for RH cells | 20100 nM | 1270 nM | 370 nM | 150 nM | MIC [2, 12]: < 1 µM; toxicity against HFF (in words) ([4]; among the four compounds): highest toxicity against HFF |
